The numbers were not newly measured in patent publication US20220280463A1, “PHARMACEUTICAL FORMULATIONS COMPRISING DICLOFENAC” (FTF PHARMA PRIVATE LIMITED, priority 2019, published 2022), which cites them from elsewhere.

This data set deals with erythrocytes. Conditions: aqueous solution of 2% propylene glycol, in 45 min.

Turning to `CC(O)CO` (stereo not shown) [propylene glycol], the haemolysis of erythrocytes is given as 100%.
